# Where two headings read alike, the source gives them in different places.
# Tested on: ras p21 protein
# Assay: Ras p21 Nucleotide Exchange Assay (inhibition of ^3H-GDP binding to p21 ras)
# Format: biochemical
# Settings: for Ras p21 Assay (per cent inhibition): at (100), unit not given
# Procedure: Ras p21 Nucleotide Exchange Assay
# The conditions for assay of nucleotide exchange inhibitors was adapted from Hall, A. and A. J. Self. 1986 J. Biol. Chem. 261: 10963-10965, which is hereby incorporated by reference.
# 0.5 μM ras p21 protein was incubated in 50 μls exhange buffer (50 mM Tris-HCl pH 7.5, 5 mM MgCl2, 50 mM NaCl and […]) on ice. Compounds dissolved in dimethyl sulfoxide (DMSO) were added to the desired concentration such that the final concentration of DMSO in the reaction mixture was 2% by weight. The reaction was incubated for 5 minutes on ice and then ^3 H-GDP (final concentration was 0.25 μM) was added.
# Biological data are given throughout the specification in one of two forms: either as per cent inhibitions, or as the concentration at which the test compound causes 50% inhibition (IC50) of the binding of ^3 H-GDP to the p21 ras protein.
# When the above assay was run at one concentration of the test compound, then the data was given as per cent inhibition at a particular concentration. […] When the assay was run at a series of concentrations, then the data were given as IC50 's.
# [1] = read-out: IC50 in the ras p21 assay
# [2] = table 3, concentration causing 50% inhibition of ^3H-GDP binding, read-out: ras 21 assay (IC50)
# [3] = table 2, concentration causing 50% inhibition of ^3H-GDP binding, read-out: ras p21 Assay (IC50)
# [4] = table 4 (arabinose derivatives), 50 μM
# [5] = table 1, concentration causing 50% inhibition of ^3H-GDP binding, read-out: Ras p21 Assay (IC50)
structure (smiles),measurement,setting,value
COc1ccc2nc3nn([C@@H]4O[C@H](COC(=O)c5ccccc5)[C@@H](OC(=O)c5ccccc5)[C@@H]4OCc4ccccc4)c(C)c3c(Cl)c2c1,ras p21 Assay (per cent inhibition),50 μM,32%
COc1ccc2nc3c(cc2c1)c(C)nn3[C@@H]1O[C@H](COC(=O)c2ccccc2)[C@@H](O)[C@H]1O,IC50,[1],50 µM
COc1ccc2nc3c(c(C)nn3[C@@H]3O[C@H](COC(=O)c4ccccc4)[C@H]4OC(C)(C)O[C@H]43)c(OCCN(C)C)c2c1,inhibition in the ras p21 assay,100 μM,59%
COc1ccc2nc3c(c(C)nn3[C@@H]3O[C@H](COC(=O)c4ccccc4)[C@@H](OC(=O)c4ccccc4)[C@H]3OC(=O)c3ccccc3)c(OCCN(C)C)c2c1,inhibition in the ras p21 assay,100 μM,12%
Cc1nn([C@@H]2O[C@H](COC(=O)c3ccccc3)[C@@H](OC(=O)c3ccccc3)[C@H]2OC(=O)c2ccccc2)c2nc3ccc(O)cc3c(Cl)c12,IC50,[1],10 µM
COc1ccc2nc3c(c(C)nn3[C@@H]3O[C@H](COC(=O)c4ccccc4)[C@@H](OC(=O)c4ccccc4)[C@H]3OC(=O)c3ccccc3)c(NCCN3CCOCC3)c2c1,inhibition in the ras p21 assay,100 μM,86%
COc1ccc2nc3c(c(C)nn3[C@@H]3O[C@H](/C=C/C(=O)c4ccccc4)[C@@H](O)[C@H]3O)c(Cl)c2c1,IC50,[2],10 µM
COc1ccc2nc3c(c(C)nn3[C@@H]3O[C@H](C(O)CC(=O)c4ccccc4)[C@@H](O)[C@H]3O)c(Cl)c2c1 (stereo partly shown),ras 21 assay (per cent inhibition),"table 3, 50 μM",34%
COc1ccc2nc3c(c(C)nn3-c3ccc(/C=C/C(=O)c4ccccc4)o3)c(Cl)c2c1,ras 21 assay (per cent inhibition),"table 3, 50 μM",61%
COc1ccc2nc3c(c(C)nn3[C@@H]3O[C@H](/C=C/C(=O)c4ccccc4)[C@H]4OC(C)(C)O[C@H]43)c(Cl)c2c1,ras 21 assay (per cent inhibition),"table 3, 100 μM",53%
COc1ccc2nc3c(c(C)nn3[C@H]3C=C[C@@H](/C=C/C(=O)c4ccccc4)O3)c(Cl)c2c1,IC50,[2],35 µM
COc1ccc2nc3c(c(C)nn3[C@H]3C=C[C@@H](C(O)CC(=O)c4ccccc4)O3)c(Cl)c2c1 (stereo partly shown),ras 21 assay (per cent inhibition),"table 3, 50 μM",48%
COc1ccc2nc3c(c(C)nn3[C@H]3C=C[C@@H](CCC(=O)c4ccccc4)O3)c(Cl)c2c1,ras 21 assay (per cent inhibition),"table 3, 100 μM",53%
COc1ccc2nc3c(c(C)nn3[C@H]3CC[C@@H](COC(=O)c4ccccc4)O3)c(Cl)c2c1,ras 21 assay (per cent inhibition),"table 3, 100 μM",38%
COc1ccc2nc3c(c(C)nn3[C@@H]3O[C@H](COC(=O)CC(C)C)[C@@H](OC(=O)CC(C)C)[C@H]3OC(=O)CC(C)C)c(Cl)c2c1,ras p21 Assay (per cent inhibition),"table 2, 50 μM",33%
COc1ccc2nc3c(c(C)nn3[C@@H]3O[C@H](COC(=O)c4cc(C)ccc4C)[C@@H](OC(=O)c4cc(C)ccc4C)[C@H]3OC(=O)c3cc(C)ccc3C)c(Cl)c2c1,ras p21 Assay (per cent inhibition),"table 2, 100 μM",37%
COc1ccc(C(=O)OC[C@H]2O[C@@H](n3nc(C)c4c(Cl)c5cc(OC)ccc5nc43)[C@H](OC(=O)c3ccc(OC)cc3)[C@@H]2OC(=O)c2ccc(OC)cc2)cc1,ras p21 Assay (per cent inhibition),"table 2, 100 μM",44%
COc1ccc2nc3c(c(C)nn3[C@@H]3O[C@H](COC(=O)c4ccccc4)[C@H]4OC(=S)O[C@H]43)c(Cl)c2c1 [(CO)Ph OC(S)O],IC50,[3],15 µM
COc1ccc2nc3c(c(C)nn3[C@@H]3O[C@H](COCc4ccccc4)[C@@H](OCc4ccccc4)[C@@H]3OCc3ccccc3)c(Cl)c2c1 [CH2 OBn OBn OBn Cl],p21 ras assay (per cent inhibition),[4],31%
COc1ccc2nc3c(c(C)nn3[C@@H]3O[C@H](COC(=O)c4ccccc4)[C@@H](OC(=O)c4ccccc4)[C@@H]3OC(=O)c3ccccc3)c(Cl)c2c1 [CH2 OBz OBz OBz Cl],p21 ras assay (per cent inhibition),[4],17%
COc1ccc2nc3c(cc2c1)c(C)nn3[C@@H]1O[C@H](COC(=O)c2ccccc2)[C@@H](OC(=O)c2ccccc2)[C@@H]1OC(=O)c1ccccc1 [CH2 OBz OBz OBz H],IC50,"table 4 (arabinose derivatives), concentration causing 50% inhibition of ^3H-GDP binding, read-out: p21 ras assay (IC50)",10 µM
COc1ccc2nc3c(c(C)nn3[C@@H]3O[C@H](CO)[C@@H](O)[C@@H]3O)c(Cl)c2c1 [CH2 OH OH OH Cl],p21 ras assay (per cent inhibition),[4],18%
COc1ccc2nc3c(c(C)nn3[C@@H]3O[C@H](COCc4ccccc4)[C@@H](OCc4ccccc4)[C@H]3OCc3ccccc3)c(Cl)c2c1 [CH2 Ph CH2 Ph CH2 Ph],ras p21 Assay (per cent inhibition),"table 2, 100 μM",35%
COc1ccc2nc3nn([C@@H]4O[C@H](COC(=O)c5ccccc5)[C@@H](OC(=O)c5ccccc5)[C@H]4OC(=O)c4ccccc4)c(C)c3c(Cl)c2c1 [Cl O(CO)Ph O(CO)Ph O(CO)Ph],IC50,[5],10 µM
COc1ccc2nc3nn([C@@H]4O[C@H](COC(=O)c5ccccc5)[C@H]5OC(=S)O[C@H]54)c(C)c3c(Cl)c2c1 [Cl O(CO)Ph OC(S)O],Ras p21 Assay (per cent inhibition),table 1,86%
COc1ccc2nc3nn([C@@H]4O[C@H](COC(=O)c5ccccc5)[C@@H](OC(C)=O)[C@H]4OC(C)=O)c(C)c3c(Cl)c2c1 [Cl O(CO)Ph OCOCH3 OCOCH3],Ras p21 Assay (per cent inhibition),table 1,20%
COc1ccc2nc3nn([C@@H]4O[C@H](COC(=O)c5ccccc5)[C@@H](O)[C@H]4O)c(C)c3c(Cl)c2c1 [Cl O(CO)Ph OH OH],Ras p21 Assay (per cent inhibition),table 1,49%
COc1ccc2nc3nn([C@@H]4O[C@H](CO)[C@@H](O)[C@H]4O)c(C)c3c(Cl)c2c1 [Cl OH OH OH],Ras p21 Assay (per cent inhibition),table 1,0%
COc1ccc2nc3c(c(C)nn3[C@@H]3O[C@H](C(O)CC(=O)c4ccccc4)[C@H]4OC(=S)O[C@H]43)c(Cl)c2c1 (stereo partly shown) [Compound U],IC50,[1],1.5 µM
same,IC50,[3],1.5 µM
COc1ccc2nc3nn([C@@H]4O[C@H](COC(=O)c5ccccc5)[C@@H](OC(=O)c5ccccc5)[C@H]4OC(=O)c4ccccc4)c(C)c3cc2c1 [H O(CO)Ph O(CO)Ph O(CO)Ph],IC50,[5],8 µM
COc1ccc2nc3c(c(C)nn3[C@@H]3O[C@H](CN)[C@H]4OC(C)(C)O[C@H]43)c(Cl)c2c1 [NH2 OC(CH3)2 O],ras p21 Assay (per cent inhibition),"table 2, 50 μM",38%
COc1ccc2nc3c(c(C)nn3[C@@H]3O[C@H](COC(=O)c4ccco4)[C@@H](OC(=O)c4ccco4)[C@H]3OC(=O)c3ccco3)c(Cl)c2c1 [O(CO)-2-Fu O(CO)-2-Fu O(CO)-2-Fu],IC50,[3],10 µM
COc1ccc2nc3c(c(C)nn3[C@@H]3O[C@H](COC(=O)c4ccoc4)[C@@H](OC(=O)c4ccoc4)[C@H]3OC(=O)c3ccoc3)c(Cl)c2c1 [O(CO)-3-Fu O(CO)-3-Fu O(CO)-3-Fu],ras p21 Assay (per cent inhibition),"table 2, 50 μM",49%
COc1ccc2nc3c(c(C)nn3[C@@H]3O[C@H](COC(=O)Cc4ccccc4)[C@@H](OC(=O)Cc4ccccc4)[C@H]3OC(=O)Cc3ccccc3)c(Cl)c2c1 [O(CO)CH2 Ph (CO)CH2 Ph O(CO)CH2 Ph],ras p21 Assay (per cent inhibition),"table 2, 100 μM",62%
COc1ccc2nc3c(c(C)nn3[C@H]3C=C[C@@H](COC(=O)c4ccccc4)O3)c(Cl)c2c1 [O(CO)Ph --],IC50,[3],90 µM
COc1ccc2nc3c(c(C)nn3[C@@H]3O[C@H](COC(=O)c4ccccc4)[C@@H](OCc4ccccc4)[C@H]3OCc3ccccc3)c(Cl)c2c1 [O(CO)Ph CH2 Ph CH2 Ph],ras p21 Assay (per cent inhibition),"table 2, 100 μM",53%
COc1ccc2nc3c(c(C)nn3[C@@H]3O[C@H](COC(=O)c4ccccc4)[C@@H](OC(C)=O)[C@H]3OC(C)=O)c(Cl)c2c1 [O(CO)Ph O(CO)CH3 O(CO)CH3],ras p21 Assay (per cent inhibition),"table 2, 100 μM",44%
COc1ccc2nc3c(c(C)nn3[C@@H]3O[C@H](COC(=O)c4ccccc4)[C@@H](OC(=O)c4ccccc4)[C@H]3OC(=O)c3ccccc3)c(Cl)c2c1 [O(CO)Ph O(CO)Ph O(CO)Ph],IC50,[3],10 µM
COc1ccc2nc3c(c(C)nn3[C@@H]3O[C@H](COC(=O)c4ccccc4)[C@H]4OC(c5ccccc5)O[C@H]43)c(Cl)c2c1 (stereo partly shown) [O(CO)Ph OC(Ph)O],ras p21 Assay (per cent inhibition),"table 2, 100 μM",41%
COc1ccc2nc3c(c(C)nn3[C@@H]3O[C@H](COC(=O)c4ccccc4)[C@@H](O)[C@H]3O)c(Cl)c2c1 [O(CO)Ph OH OH],ras p21 Assay (per cent inhibition),"table 2, 100 μM",16%
COc1ccc2nc3c(c(C)nn3[C@@H]3O[C@H](COC(=O)c4ccc([N+](=O)[O-])cc4)[C@@H](OC(=O)c4ccc([N+](=O)[O-])cc4)[C@H]3OC(=O)c3ccc([N+](=O)[O-])cc3)c(Cl)c2c1 [O(CO)Ph-4-NO2 (CO)Ph-4-NO2 O(CO)Ph-4-NO2],ras p21 Assay (per cent inhibition),"table 2, 100 μM",59%
COc1ccc2nc3c(c(C)nn3[C@@H]3O[C@H](CNC(=O)c4ccccc4)[C@H]4OC(C)(C)O[C@H]43)c(Cl)c2c1 [O(CO)PhNH OC(CH3)2 O],ras p21 Assay (per cent inhibition),"table 2, 50 μM",56%
COc1ccc2nc3c(c(C)nn3[C@@H]3O[C@H](CNC(=O)c4ccccc4)[C@@H](O)[C@H]3O)c(Cl)c2c1 [O(CO)PhNH OH OH],ras p21 Assay (per cent inhibition),"table 2, 50 μM",24%
COc1ccc2nc3c(c(C)nn3[C@@H]3O[C@H](COC(=O)c4cccnc4)[C@@H](OC(=O)c4cccnc4)[C@H]3OC(=O)c3cccnc3)c(Cl)c2c1 [O(CO)Py O(CO)Py O(CO)Py],ras p21 Assay (per cent inhibition),"table 2, 50 μM",33%
COc1ccc2nc3c(c(C)nn3[C@@H]3O[C@H](COC(C)=O)[C@@H](OC(C)=O)[C@H]3OC(C)=O)c(Cl)c2c1 [OCOCH3 O(CO)CH3 O(CO)CH3],ras p21 Assay (per cent inhibition),"table 2, 100 μM",3%
COc1ccc2nc3nn([C@@H]4O[C@H](COC(=O)c5ccccc5)[C@@H](OC(=O)c5ccccc5)[C@H]4OC(=O)c4ccccc4)c(C)c3c(O)c2c1 [OH O(CO)Ph O(CO)Ph O(CO)Ph],IC50,[5],10 µM
COc1ccc2nc3c(c(C)nn3[C@@H]3O[C@H](CO)[C@H]4OC(C)(C)O[C@H]43)c(Cl)c2c1 [OH OC(CH3)2 O],ras p21 Assay (per cent inhibition),"table 2, 100 μM",11%
COc1ccc2nc3nn([C@@H]4O[C@H](CO)[C@@H](O)[C@H]4O)c(C)c3c(O)c2c1 [OH OH OH OH],Ras p21 Assay (per cent inhibition),table 1,49%

# From patent publication US5595998A, “Pyrazoloquinolines” (priority 1994, dated 1997)
